From patent US20220041572A1, “CYCLOHEPTYL ACIDS AS LPA ANTAGONISTS” (BRISTOL-MYERS SQUIBB COMPANY, priority 2018, published 2022)

target: T1, human LPA1 (Homo sapiens, UniProt Q92633); assay: LPA1 functional antagonist assay (LPA-induced calcium flux); type: cell-based; settings: CHO cells overexpressing human LPA1; inhibition of calcium flux induced by 10 nM LPA; read-out: hLPA1 IC50
T1 construct: expressed in transfected cells; host or cells: Chinese hamster ovary (CHO) cells
Experimental: The effectiveness of compounds of the present invention as LPA1 inhibitors can be determined in an LPA1 functional antagonist assay as follows:
Chinese hamster ovary cells overexpressing human LPA1 were plated overnight (15,000 cells/well) in poly-D-lysine coated 384-well microplates (Greiner bio-one, Cat#781946) in DMEM/F12 medium (Gibco, Cat#11039). Following overnight culture, cells were loaded with calcium indicator dye (AAT Bioquest Inc, Cat#34601) for 30 minutes at 37° C. The cells were then equilibrated to room temperature for 30 minutes before the assay. Test compounds solubilized in DMSO were transferred to 384 well non-binding surface plates (Coming, Cat#3575) using the Labcyte Echo acoustic dispense and diluted with assay buffer [1X HBSS with calcium/magnesium (Gibco Cat#14025-092), 20 mM HEPES (Gibco Cat#15630-080) and 0.1% fatty acid free BSA (Sigma Cat#A9205)] to a final concentration of 0.5% DMSO. Diluted compounds were added to the cells by FDSS6000 (Hamamatsu) at final concentrations ranging from 0.08 nM to 5 μM. and were then incubated for 20 min at room temperature at which time LPA (Avanti Polar Lipids Cat#857130C) was added at final concentrations of 10 nM to stimulate the cells. The compound IC50 value was defined as the concentration of test compound which inhibited 50% of the calcium flux induced by LPA alone. IC50 values were determined by fitting data to a 4-parameter logistic equation (GraphPad Prism, San Diego Calif.).

T1 sequence (Q92633 whole entry): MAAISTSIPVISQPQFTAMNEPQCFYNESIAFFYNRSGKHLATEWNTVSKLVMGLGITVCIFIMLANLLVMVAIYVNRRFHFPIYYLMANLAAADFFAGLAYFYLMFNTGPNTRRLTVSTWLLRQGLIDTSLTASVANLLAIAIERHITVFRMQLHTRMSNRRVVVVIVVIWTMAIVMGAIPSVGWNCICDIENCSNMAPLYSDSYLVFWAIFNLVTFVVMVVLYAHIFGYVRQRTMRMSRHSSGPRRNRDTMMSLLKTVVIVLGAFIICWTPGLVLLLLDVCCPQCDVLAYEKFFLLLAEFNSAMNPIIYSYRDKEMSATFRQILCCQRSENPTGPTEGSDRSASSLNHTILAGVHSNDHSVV

SMILES | IC50 [nM]
Cc1nc(-c2nnn(C)c2COc2cc(C(C)C)ncn2)ccc1OC1CCCCC(C(=O)O)C1 (stereo not drawn) [Example 19] | 48
Cc1nc(-c2nnn(C)c2NC(=O)O[C@H](C)c2ccccc2)ccc1OC1CCCCC(C(=O)O)C1 (mixture of isomers) [Example 22, (±)-3-((2-methyl-6-(1-methyl-5-((((R)-1-phenylethoxy)carbonyl)amino)-1H-1,2,3-triazol-4-yl)pyridin-3-yl)oxy)cycloheptane-1-carboxylic Acid] | 53
Cc1nc(-c2nnn(C)c2COC(=O)N(C)CC2CC2)ccc1OC1CCCCC(C(=O)O)C1 (stereo not drawn) [Example 7] | 11
Cc1nc(-c2nnn(C)c2COC(=O)N(C)CC(C)C)ccc1OC1CCCCC(C(=O)O)C1 (stereo not drawn) [Example 9] | 16
Cc1nc(-c2nnn(C)c2COC(=O)N(C)CC2CCC2)ccc1O[C@@H]1CCCC[C@@H](C(=O)O)C1 (single isomer, unassigned) [Example 3] | 108
Cc1nc(-c2nnn(C)c2COC(=O)N(C)C2CCC2)ccc1OC1CCCCC(C(=O)O)C1 (stereo not drawn) [Example 13] | 51
COc1cc(OCc2c(-c3ccc(OC4CCCCC(C(=O)O)C4)c(C)n3)nnn2C)ncn1 (stereo not drawn) [Example 21] | 26
CCCN(C)C(=O)OCc1c(-c2ccc(OC3CCCCC(C(=O)O)C3)c(C)n2)nnn1C (stereo not drawn) [Example 6] | 117
Cc1nc(-c2nnn(C)c2NC(=O)OCC(C)C)ccc1OC1CCCCC(C(=O)O)C1 (stereo not drawn) [Example 24] | 91
Cc1nc(-c2nnn(C)c2COC(=O)N(C)CC2CCC2)ccc1O[C@@H]1CCCC[C@H](C(=O)O)C1 (single isomer, unassigned) [Example 5] | 296
Cc1nc(-c2nnn(C)c2COc2cc(C(C)(C)C)ncn2)ccc1OC1CCCCC(C(=O)O)C1 (stereo not drawn) [Example 17] | 325
Cc1nc(-c2nnn(C)c2COc2cc(C(C)(C)C)ncn2)ccc1OC1CCCCC(C(=O)O)C1 (stereo not drawn) [Example 16] | 154
Cc1nc(-c2nnn(C)c2COc2cc(C(C)C)ncn2)ccc1OC1CCCCC(C(=O)O)C1 (stereo not drawn) [Example 18] | 145
Cc1nc(-c2nnn(C)c2COC(=O)N(C)CC2CCC2)ccc1O[C@@H]1CCCC[C@@H](C(=O)O)C1 (single isomer, unassigned) [Example 2] | 9.5
Cc1nc(-c2nnn(C)c2COC(=O)N(C)C2CCCC2)ccc1OC1CCCCC(C(=O)O)C1 (stereo not drawn) [Example 8] | 11
CCc1cc(OCc2c(-c3ccc(OC4CCCCC(C(=O)O)C4)c(C)n3)nnn2C)ncn1 (racemic) [Example 15, (±)-3-((6-(5-(((6-ethylpyrimidin-4-yl)oxy)methyl)-1-methyl-1H-1,2,3-triazol-4-yl)-2-methylpyridin-3-yl)oxy)cycloheptane-1-carboxylic Acid] | 32
Cc1nc(-c2nnn(C)c2COC(=O)N(C)CC2CCC2)ccc1O[C@@H]1CCCC[C@H](C(=O)O)C1 (single isomer, unassigned) [Example 4] | 19
Cc1nc(-c2nnn(C)c2COC(=O)N(C)CCC(C)C)ccc1OC1CCCCC(C(=O)O)C1 (stereo not drawn) [Example 11] | 36
Cc1nc(-c2nnn(C)c2NC(=O)OCC2CC2)ccc1OC1CCCCC(C(=O)O)C1 (stereo not drawn) [Example 23] | 127
Cc1nc(-c2nnn(C)c2COC(=O)N(C)CC(C)C)ccc1OC1CCCCC(C(=O)O)C1 (stereo not drawn) [Example 10] | 88
Cc1nc(-c2nnn(C)c2COC(=O)N(C)Cc2ccccc2)ccc1OC1CCCCC(C(=O)O)C1 (racemic) [Example 1, (±)-3-((6-(5-(((benzyl(methyl)carbamoyl)oxy)methyl)-1-methyl-1H-1,2,3-triazol-4-yl)-2-methylpyridin-3-yl)oxy)cycloheptane-1-carboxylic Acid] | 16
Cc1nc(-c2nnn(C)c2COC(=O)N(C)C2CCC2)ccc1OC1CCCCC(C(=O)O)C1 (stereo not drawn) [Example 14] | 20
Cc1nc(-c2nnn(C)c2COC(=O)N(C)CCC(C)C)ccc1OC1CCCCC(C(=O)O)C1 (stereo not drawn) [Example 12] | 25
COc1cc(OCc2c(-c3ccc(OC4CCCCC(C(=O)O)C4)c(C)n3)nnn2C)ncn1 (stereo not drawn) [Example 20] | 67

test system: human foetal lung fibroblasts; assay: not given; settings: Tager et al. Nature Medicine 2008; cited from earlier work

SMILES | chemotaxis of human foetal lung fibroblasts induced by BAL from IPF patients
Cc1noc(-c2ccc(CSCCC(=O)O)cc2)c1NC(=O)OC(C)c1ccccc1Cl (stereo not drawn) [Ki16425] | blocked

test system: UUO mice; assay: not given; settings: compared with LPA1 (−/−) mice; cited from earlier work

SMILES | renal fibrosis profile of treated UUO mice
Cc1noc(-c2ccc(CSCCC(=O)O)cc2)c1NC(=O)OC(C)c1ccccc1Cl (stereo not drawn) [Ki16425] | closely resembled the profile of LPA1 (−/−) mice

test system: CTGF; assay: not given; settings: MCT cells, co-treatment with LPA; cited from earlier work

SMILES | LPA induction of CTGF expression
Cc1noc(-c2ccc(CSCCC(=O)O)cc2)c1NC(=O)OC(C)c1ccccc1Cl (stereo not drawn) [Ki16425] | almost completely suppressed

test system: pancreatic cancer cell lines; assay: not given; settings: Yamada et al 2004; cited from earlier work

SMILES | in vitro migration in response to LPA and peritoneal fluid (ascites) from pancreatic cancer patients
Cc1noc(-c2ccc(CSCCC(=O)O)cc2)c1NC(=O)OC(C)c1ccccc1Cl (stereo not drawn) [Ki16425] | effectively blocked

test system: highly peritoneal metastatic pancreatic cancer cell line; assay: not given; settings: Yamada et al 2004; cited from earlier work

SMILES | LPA-induced and ascites-induced invasion activity
Cc1noc(-c2ccc(CSCCC(=O)O)cc2)c1NC(=O)OC(C)c1ccccc1Cl (stereo not drawn) [Ki16425] | blocked

test system: nerve-injured mice; assay: not given; settings: pretreatment, Inoue et al 2004; cited from earlier work

SMILES | allodynia and hyperalgesia
C[C@@H](N)[C@H]1CC[C@H](C(=O)Nc2ccncc2)CC1 [Example Y-27632] | completely abolished
